“Also recorded” adds a separate entry of the source. Like-named read-outs stand apart in the source and are kept apart here.
What was measured:
AquaOBP4 = experiment: Fluorescence competitive binding assay with 1-NPN reporter; set-up: species or system Ambrostoma quadriimpressum; conditions: for binding to AquaOBP4 (1-NPN displacement): first-round screening
Excerpt: Binding affinity was primarily tested with a panel of 40 A. quadriimpressum habitat-related compounds, most of which are abundantly distributed in elms and A. quadriimpressum. Additionally, one newly identified repellent, cinnamaldehyde, was included[25],[27],[28]. After the molecular model of AquaOBP4 was established, we selected two additional compounds, which also came from elms and A. quadriimpressum, for model validation. All of the compounds were purchased from Sigma-Aldrich (Millipore Sigma, USA) with purities of greater than 95%. The CAS numbers, structures and sources of the tested compounds are listed in Table 2, and detailed information (including content) for each odorant is provided in Table S1.
N-phenyl-1-naphthylamine (1-NPN) was used as a reporter to measure the affinity of the fluorescent 1-NPN ligand to proteins. The fluorescence spectra were recorded using a Fluoromax-4 spectrofluorometer (HORIBA Jobin Yvon, New York, USA) with 2 µM protein in 50 mM ammonium acetate (pH 7.2) at room temperature; the compounds and 1-NPN were dissolved in high-performance liquid chromatography (HPLC)-grade methanol at a concentration of 1 mM. Parameter selection was such that the slit widths for both excitation and emission were 10 nm. The reporter was excited at 337 nm, and the emission spectra were recorded between 380 and 500 nm. The AquaOBP4 saturation curve was tested using 1-NPN at 2 to 14 µM, and the affinities of the compounds were estimated using 2 µM 1-NPN and 10 to 70 µM concentrations of the compounds. The curves were then linearized using Scatchard plots. IC50 and Kd values were analyzed using Prism 6 (GraphPad Software, USA), and Ki values were calculated using the following equation: Ki = [IC50]/1 + [1-NPN]/Kd, where [1-NPN] is the concentration of dissociative 1-NPN and Kd is the dissociation constant of the protein/1-NPN complex. To investigate the response of AquaOBP4 at low pH, the fluorescence binding affinity between AquaOBP4 and one of the best ligands was measured at pH 5. Then, 50 mM ammonium acetate (pH 5) was used as a buffer to dissolve the AquaOBP4 protein.

[1] = tested on: antennae of A. quadriimpressum; experiment: Electroantennogram (EAG) responses of binding odorants; format: in vivo, Ambrostoma quadriimpressum; conditions: 0.1, 1 and 10 µg/µl in paraffin oil; normalized to negative control
[2] = tested on: A. quadriimpressum adults; experiment: Y-tube olfactometer behavioral test; format: in vivo, Ambrostoma quadriimpressum; conditions: 10 µg/µl in paraffin oil (methods), 1 µg/µl; vs paraffin oil control; N = 90
Protocol: The responses of A. quadriimpressum to the three best ligands were assessed in a Y-tube olfactometer. The compounds were tested at an intermediate concentration of 10 µg/µl in paraffin oil. In these assays, 20 μl of the odorant was applied to a piece of filter paper (25 × 25 mm), which was then placed in one of the olfactometer arms. In the other arm, 20 μl of paraffin oil was used as a negative control. Thirty beetles (15 males and 15 females) were individually tested, with three replicates for each individual (for a total of 90 replicates). A red light source was used in the darkroom to avoid light interference. For the Y-tube (1-cm diameter, 100-cm base length, 10-cm arm length), one small hole was cut into the base of the Y-tube at 10 cm for releasing beetles. The source of the air that passed through the Y-tube was a pressurized tank of pure air. The air was first filtered through active carbon and then humidified by bubbling it through a bottle filled with double-distilled (dd) water before entering the Y-tube. The air flow traveled through both arms of the Y-tube olfactometer at a speed of 300 ml/min. Each individual beetle was placed at the entrance of the olfactometer (Fig. 1), and their “choice” was recorded when the beetle entered an arm and remained there for 30 s. If an insect made no choice within 3 min, the result was recorded as “no-choice”. […]

[3] = tested on: antennae of A. quadriimpressum; set-up: method as in previous results of the authors; conditions: ref previous results of the authors; cited from earlier work
A. quadriimpressum = tested on: A. quadriimpressum; set-up: method as in doi:10.1653/024.099.0212; conditions: cited from earlier work
[4] = Table 3, pH 7.2, 2 µM 1-NPN, 2 µM protein, compounds 10 to 70 µM
[5] = Table 3 and text, pH 7.2, 2 µM 1-NPN, calculated from IC50

Molecule | IC50 (AquaOBP4; [4]) [µM] | Ki (AquaOBP4; [5]) [µM] | pKi (AquaOBP4; Table 4) | IC50 (AquaOBP4; Table 4, pH 7.2, 2 µM 1-NPN) [µM] | binding to AquaOBP4 (1-NPN displacement) (AquaOBP4; pH 7.2) | Ki (AquaOBP4; Table 4, pH 7.2, 2 µM 1-NPN) [µM] | also measured
CCCCOC(=O)c1ccccc1C(=O)OCCCC [Dibutyl phthalate] | 45.6 | 24.2 | 4.62 | 45.6 |  |  | EAG response [1]: strong EAG responses; attraction of A. quadriimpressum adults in Y-tube olfactometer [2]: slightly higher attractiveness
COC(=O)c1ccccc1 [Methyl benzoate] |  |  |  |  | did not bind; also recorded: no binding |  | 
CC(C)COC(=O)c1ccccc1C(=O)OCC(C)C [Diisobutyl phthalate] | 50.4 | 26.8 | 4.57 | 50.4 |  | 26.8 | EAG response [1]: strong EAG responses
O=C/C=C/c1ccccc1 [Cinnamaldehyde] | 149 | 79.3 | 4.10 | 149 |  | 79.3 | physiological response on the antennae of A. quadriimpressum [3]: strong physiological response; repellent / antifeedant effect against A. quadriimpressum (A. quadriimpressum): strong repellent; repellent / antifeedant effect against A. quadriimpressum (A. quadriimpressum; listed as cinnamaldehyde): antifeedant
Isoeugenol |  |  | 3.77 | 321 |  | 171 | 
c1ccc(Nc2cccc3ccccc23)cc1 [1-NPN, N-phenyl-1-naphthylamine, reference compound] |  |  |  |  |  |  | Kd (AquaOBP4; pH 5): 1490 ± 80 nM; Kd (AquaOBP4; pH 7.2, 2 µM protein, 1-NPN 2 to 14 µM): 2270 ± 160 nM
CC/C=C\CCOC(=O)c1ccccc1 [cis-3-Hexenyl benzoate] | 65.8 | 35 | 4.46 | 65.8 |  |  | 
CC/C=C\CCOC(C)=O [Leaf acetate] |  |  |  |  | no binding |  | 
CC(=O)/C=C/C1=C(C)CCCC1(C)C [β-Ionone] | 56.6 | 30.1 | 4.52 | 56.6 |  |  | 
CC(=O)Oc1ccccc1 [Acetic acid, Phenyl ester] |  |  |  |  | did not bind |  | 
CCCCCCCCOC(=O)c1ccccc1C(=O)OCCCC [Butyl octyl phthalate] |  |  | 4.90 | 23.9 |  | 12.7 | Ki (AquaOBP4; Figure 6 legend, 1-NPN 2 μM): 12.7 µM; Ki (AquaOBP4; pH 5): 16.8 µM; EAG response [1]: strong EAG responses
COC(=O)c1ccccc1O [Methyl salicylate] |  |  |  |  | did not bind |  | 

Source: paper PMC5684361, “Selectivity and ligand-based molecular modeling of an odorant-binding protein from the leaf beetle Ambrostoma quadriimpressum (Coleoptera: Chrysomelidae) in relation to habitat-related volatiles” (Scientific Reports, 2017)
